Test results reported in patent publication US7125990B2, “Imidazolyl derivatives as corticotropin releasing factor inhibitors” (Bristol-Myers Squibb COmpany, priority 2001, dated 2006).
pKi: −log10 of the molar value.

These compounds were tested against T1, CRF1 receptors (Homo sapiens, UniProt P34998) (assay: CRF1 receptor radioligand binding assay ([125I]-oCRF competition, IMR-32 cell membranes)). Conditions: IMR-32 cell membranes, [125I]-oCRF 100 pM; read-out: Ki (CRF-1R).
T1 construct: endogenous in cells; host or cells: IMR-32 cells, transformed with 2.5 µM 5'-bromo-2'-deoxyuridine for 10 days; membrane preparation
T1 sequence (P34998 24-415): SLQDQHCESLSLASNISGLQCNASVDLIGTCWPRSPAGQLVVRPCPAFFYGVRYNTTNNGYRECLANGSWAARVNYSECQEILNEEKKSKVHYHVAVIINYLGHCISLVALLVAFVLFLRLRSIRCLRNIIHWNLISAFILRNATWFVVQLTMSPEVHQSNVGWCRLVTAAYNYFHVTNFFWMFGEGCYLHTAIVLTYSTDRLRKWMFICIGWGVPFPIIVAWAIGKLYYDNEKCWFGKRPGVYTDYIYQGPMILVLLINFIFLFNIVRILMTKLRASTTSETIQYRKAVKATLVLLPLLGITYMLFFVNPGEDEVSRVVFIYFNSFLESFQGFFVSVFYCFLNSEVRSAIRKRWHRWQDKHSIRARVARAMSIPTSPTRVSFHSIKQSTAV
How it was run: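 Buffer: Tris pH 7.2 with MgCl2, BSA, Triton X-100, aprotinin, leupeptin; reaction stopped with ice-cold wash and filtered. Nonspecific binding set with 10 μM oCRF.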

Row | Structure (SMILES) | pKi
1 | CCN(Cc1ccccc1)Cc1c(C(F)(F)F)nc2n(-c3c(C)cc(C)cc3C)c(Cl)cn12 [Example 309, Benzyl-[6-chloro-2-trifluoromethyl-7-(2,4,6-trimethyl-phenyl)-7H-imidazo[1,2-a]imidazol-3-ylmethyl]-ethyl-amine] | > 6.00
2 | CCCCN(C)Cc1c(C(F)(F)F)nc2n(-c3c(C)cc(C)cc3C)c(Cl)cn12 [Example 310, Butyl-[6-chloro-2-trifluoromethyl-7-(2,4,6-trimethyl-phenyl)-7H-imidazo[1,2-a]imidazol-3-ylmethyl]-methyl-amine] | > 6.00
3 | CCCCN(Cc1ccccc1)Cc1c(C(F)(F)F)nc2n(-c3c(C)cc(C)cc3C)c(Cl)cn12 [Example 311, Benzyl-butyl-[6-chloro-2-trifluoromethyl-7-(2,4,6-trimethyl-phenyl)-7H-imidazo[1,2-a]imidazol-3-ylmethyl]-amine] | > 6.00
4 | C=C(C)CN(CC)Cc1c(C(F)(F)F)nc2n(-c3c(C)cc(C)cc3C)c(Cl)cn12 [Example 312, [6-Chloro-2-trifluoromethyl-7-(2,4,6-trimethyl-phenyl)-7H-imidazo[1,2-a]imidazol-3-ylmethyl]-ethyl-(2-methyl-allyl)-amine] | > 7.00
5 | CCCN(Cc1ccc([N+](=O)[O-])cc1)Cc1c(C(F)(F)F)nc2n(-c3c(C)cc(C)cc3C)c(Cl)cn12 [Example 313, [6-Chloro-2-trifluoromethyl-7-(2,4,6-trimethyl-phenyl)-7H-imidazo[1,2-a]imidazol-3-ylmethyl]-(4-nitro-benzyl)-propyl-amine] | > 6.00
6 | Cc1cc(C)c(-n2c(Cl)cn3c(CN(C)Cc4ccco4)c(C(F)(F)F)nc23)c(C)c1 [Example 314, [6-Chloro-2-trifluoromethyl-7-(2,4,6-trimethyl-phenyl)-7H-imidazo[1,2-a]imidazol-3-ylmethyl]-furan-2-ylmethyl-methyl-amine] | > 6.00
7 | CCN(Cc1ccc(Cl)c(Cl)c1)Cc1c(C(F)(F)F)nc2n(-c3c(C)cc(C)cc3C)c(Cl)cn12 [Example 315, [6-Chloro-2-trifluoromethyl-7-(2,4,6-trimethyl-phenyl)-7H-imidazo[1,2-a]imidazol-3-ylmethyl]-(3,4-dichloro-benzyl)-ethyl-amine] | > 6.00
8 | Cc1cc(C)c(-n2c(Cl)cn3c(CN4CCCC4Cc4ccccc4)c(C(F)(F)F)nc23)c(C)c1 (stereo not drawn) [Example 316, 5-(2-Benzyl-pyrrolidin-1-ylmethyl)-2-chloro-6-trifluoromethyl-1-(2,4,6-trimethyl-phenyl)-1H-imidazo[1,2-a]imidazole] | > 6.00
9 | Cc1cc(C)c(-n2c(Cl)cn3c(CN4CCC(c5ccccc5)C4)c(C(F)(F)F)nc23)c(C)c1 (stereo not drawn) [Example 317, 2-Chloro-5-(3-phenyl-pyrrolidin-1-ylmethyl)-6-trifluoromethyl-1-(2,4,6-trimethyl-phenyl)-1H-imidazo[1,2-a]imidazole] | > 6.00
10 | CCCN(Cc1c(C(F)(F)F)nc2n(-c3c(C)cc(C)cc3C)c(Cl)cn12)CC(F)(F)C(F)(F)F [Example 323, [6-Chloro-2-trifluoromethyl-7-(2,4,6-trimethyl-phenyl)-7H-imidazo[1,2-a]imidazol-3-ylmethyl]-(2,2,3,3,3-pentafluoro-propyl)-propyl-amine] | > 6.00
11 | Cc1cc(C)c(-n2c(Cl)cn3c(CN(CCc4ccccc4)CC(F)(F)F)c(C(F)(F)F)nc23)c(C)c1 [Example 324, [6-Chloro-2-trifluoromethyl-7-(2,4,6-trimethyl-phenyl)-7H-imidazo[1,2-a]imidazol-3-ylmethyl]-phenethyl-(2,2,2-trifluoro-ethyl)-amine] | > 6.00
12 | Cc1cc(C)c(-n2c(Cl)cn3c(CN(CCC(F)(F)F)Cc4ccccc4)c(C(F)(F)F)nc23)c(C)c1 [Example 327, Benzyl-[6-chloro-2-trifluoromethyl-7-(2,4,6-trimethyl-phenyl)-7H-imidazo[1,2-a]imidazol-3-ylmethyl]-(3,3,3-trifluoro-propyl)-amine] | > 7.00
13 | Cc1cc(C)c(-n2c(Cl)cn3c(CN(Cc4ccc(F)cc4)CC(F)(F)F)c(C(F)(F)F)nc23)c(C)c1 [Example 332] | > 6.00
14 | Cc1cc(C)c(-n2c(Cl)cn3c(CN(CCC(F)(F)F)Cc4ccc(F)cc4)c(C(F)(F)F)nc23)c(C)c1 [Example 333] | > 7.00
15 | CCCN(Cc1cccc(F)c1)Cc1c(C(F)(F)F)nc2n(-c3c(C)cc(C)cc3C)c(Cl)cn12 [Example 340, [6-Chloro-2-trifluoromethyl-7-(2,4,6-trimethyl-phenyl)-7H-imidazo[1,2-a]imidazol-3-ylmethyl]-(3-fluoro-benzyl)-propyl-amine] | > 6.00
16 | CCCN(CCOC)Cc1c(C(F)(F)F)nc2n(-c3c(C)cc(C)cc3C)c(Cl)cn12 [Example 342, [6-Chloro-2-trifluoromethyl-7-(2,4,6-trimethyl-phenyl)-7H-imidazo[1,2-a]imidazol-3-ylmethyl]-(2-methoxy-ethyl)-propyl-amine] | > 7.00
17 | Cc1cc(C)c(-n2c(Cl)cn3c(CN(CCC(F)(F)F)Cc4cccc(F)c4)c(C(F)(F)F)nc23)c(C)c1 [Example 343, [6-Chloro-2-trifluoromethyl-7-(2,4,6-trimethyl-phenyl)-7H-imidazo[1,2-a]imidazol-3-ylmethyl]-(3-fluoro-benzyl)-(3,3,3-trifluoro-propyl)-amine] | > 7.00
18 | CCCN(CCC)Cc1c(C(F)(F)F)nc2n(-c3c(C)cc(C)cc3C)c(Cl)cn12 [Example 344, [6-Chloro-2-trifluoromethyl-7-(2,4,6-trimethyl-phenyl)-7H-imidazo[1,2-a]imidazol-3-ylmethyl]-dipropyl-amine] | > 7.00
19 | C=CCN(CC=C)Cc1c(C(F)(F)F)nc2n(-c3c(C)cc(C)cc3C)c(Cl)cn12 [Example 345, Diallyl-[6-chloro-2-trifluoromethyl-7-(2,4,6-trimethyl-phenyl)-7H-imidazo[1,2-a]imidazol-3-ylmethyl]-amine] | > 8.00
20 | CCCCN(CC)Cc1c(C(F)(F)F)nc2n(-c3c(C)cc(C)cc3C)c(Cl)cn12 [Example 346, Butyl-[6-chloro-2-trifluoromethyl-7-(2,4,6-trimethyl-phenyl)-7H-imidazo[1,2-a]imidazol-3-ylmethyl]-ethyl-amine] | > 7.00

Other lines, results leading:

Row | pKi | Structure (SMILES)
21 | > 8.00 | Cc1cc(C)c(-n2c(Cl)cn3c(CN(CC4CC4)CC(F)(F)C(F)(F)F)c(C(F)(F)F)nc23)c(C)c1 [Example 318]
22 | > 8.00 | CCN(Cc1c(C(F)(F)F)nc2n(-c3c(C)cc(C)cc3C)c(Cl)cn12)CC1CC1 [Example 319, [6-Chloro-2-trifluoromethyl-7-(2,4,6-trimethyl-phenyl)-7H-imidazo[1,2-a]imidazol-3-ylmethyl]-cyclopropylmethyl-ethyl-amine]
23 | > 8.00 | Cc1cc(C)c(-n2c(Cl)cn3c(CN(CC4CCC4)CC(F)(F)F)c(C(F)(F)F)nc23)c(C)c1 [Example 320, [6-Chloro-2-trifluoromethyl-7-(2,4,6-trimethyl-phenyl)-7H-imidazo[1,2-a]imidazol-3-ylmethyl]-cyclobutylmethyl-(2,2,2-trifluoro-ethyl)-amine]
24 | > 8.00 | CCCN(CCC(F)(F)F)Cc1c(C(F)(F)F)nc2n(-c3c(C)cc(C)cc3C)c(Cl)cn12 [Example 321, [6-Chloro-2-trifluoromethyl-7-(2,4,6-trimethyl-phenyl)-7H-imidazo[1,2-a]imidazol-3-ylmethyl]-propyl-(3,3,3-trifluoro-propyl)-amine]
25 | > 8.00 | CCCN(Cc1c(C(F)(F)F)nc2n(-c3c(C)cc(C)cc3C)c(Cl)cn12)CC(F)(F)F [Example 322, [6-Chloro-2-trifluoromethyl-7-(2,4,6-trimethyl-phenyl)-7H-imidazo[1,2-a]imidazol-3-ylmethyl]-propyl-(2,2,2-trifluoro-ethyl)-amine]
26 | > 8.00 | Cc1cc(C)c(-n2c(Cl)cn3c(CN(CCC4CC4)CCC(F)(F)F)c(C(F)(F)F)nc23)c(C)c1 [Example 330, [6-Chloro-2-trifluoromethyl-7-(2,4,6-trimethyl-phenyl)-7H-imidazo[1,2-a]imidazol-3-ylmethyl]-(2-cyclopropyl-ethyl)-(3,3,3-trifluoro-propyl)-amine]
27 | > 8.00 | Cc1cc(C)c(-n2c(Cl)cn3c(CN(CCC4CC4)CC(F)(F)F)c(C(F)(F)F)nc23)c(C)c1 [Example 331, [6-Chloro-2-trifluoromethyl-7-(2,4,6-trimethyl-phenyl)-7H-imidazo[1,2-a]imidazol-3-ylmethyl]-(2-cyclopropyl-ethyl)-(2,2,2-trifluoro-ethyl)-amine]
28 | > 8.00 | Cc1cc(C)c(-n2c(Cl)cn3c(CN(CCC(F)(F)F)Cc4ccc(Cl)cc4)c(C(F)(F)F)nc23)c(C)c1 [Example 336, (4-Chloro-benzyl)-[6-chloro-2-trifluoromethyl-7-(2,4,6-trimethyl-phenyl)-7H-imidazo[1,2-a]imidazol-3-ylmethyl]-(3,3,3-trifluoro-propyl)-amine]
29 | > 8.00 | C=CCN(CCC)Cc1c(C(F)(F)F)nc2n(-c3c(C)cc(C)cc3C)c(Cl)cn12 [Example 339, Allyl-[6-chloro-2-trifluoromethyl-7-(2,4,6-trimethyl-phenyl)-7H-imidazo[1,2-a]imidazol-3-ylmethyl]-propyl-amine]
30 | > 8.00 | CCN(Cc1c(C(F)(F)F)nc2n(-c3c(C)cc(C)cc3C)c(Cl)cn12)CC1CCC1 [Example 341, [6-Chloro-2-trifluoromethyl-7-(2,4,6-trimethyl-phenyl)-7H-imidazo[1,2-a]imidazol-3-ylmethyl]-cyclobutylmethyl-ethyl-amine]
